Source: PubChem BioAssay AID330 (DTP/NCI, 2004)
Several values for one entry are separate records, joined by “and”; a condition that tells them apart may be missing. Equal entries are not always repeated. Inconclusive results and toxic doses are left out.

System: P388 leukemia ip, CD2F1 mice, survival T/C
Experiment: NCI In Vivo Anticancer Drug Screen. Data for tumor model P388 Leukemia (intraperitoneal) in CD2F1 (CDF1) mice
Conditions: endpoint: median survival time, higher = longer survival
In short: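 Mice carrying the transplanted tumor received test compound or vehicle. Survival was recorded in each group, and the value is the treated-group measurement divided by that of the vehicle-treated control group.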

[1] = dose: 50.0 mg/kg/injection, schedule: Q01DX009 (ip), vehicle: saline
[2] = dose: 100.0 mg/kg/injection, schedule: Q01DX009 (ip), vehicle: saline
[3] = dose: 200.0 mg/kg/injection, schedule: Q01DX009 (ip), vehicle: saline
[4] = dose: 50.0 mg/kg/injection, schedule: Q01DX005 (ip), vehicle: Klucel (hydroxypropylcellulose) (HPC)
[5] = dose: 100.0 mg/kg/injection, schedule: Q01DX005 (ip), vehicle: Klucel (hydroxypropylcellulose) (HPC)
[6] = dose: 200.0 mg/kg/injection, schedule: Q01DX005 (ip), vehicle: Klucel (hydroxypropylcellulose) (HPC)
[7] = dose: 100.0 mg/kg/injection, schedule: Q01DX001 (ip), vehicle: saline
[8] = dose: 200.0 mg/kg/injection, schedule: Q01DX001 (ip), vehicle: saline
[9] = dose: 60.0 mg/kg/injection, schedule: Q01DX005 (ip), vehicle: saline with Tween-80
[10] = dose: 120.0 mg/kg/injection, schedule: Q01DX005 (ip), vehicle: saline with Tween-80
[11] = dose: 240.0 mg/kg/injection, schedule: Q01DX005 (ip), vehicle: saline with Tween-80
[12] = dose: 100.0 mg/kg/injection, schedule: Q04DX003 (ip), vehicle: saline with Tween-80
[13] = dose: 200.0 mg/kg/injection, schedule: Q04DX003 (ip), vehicle: saline with Tween-80
[14] = dose: 25.0 mg/kg/injection, schedule: Q01DX009 (ip), vehicle: saline with Tween-80
[15] = dose: 200.0 mg/kg/injection, schedule: Q01DX009 (ip), vehicle: saline with Tween-80
[16] = dose: 50.0 mg/kg/injection, schedule: Q01DX009 (ip), vehicle: saline with Tween-80
[17] = dose: 100.0 mg/kg/injection, schedule: Q01DX009 (ip), vehicle: saline with Tween-80
[18] = dose: 400.0 mg/kg/injection, schedule: Q04DX003 (ip), vehicle: saline with Tween-80

For `O=C1C=C(N2CC2)C(=O)C(N2CC2)=C1N1CC1`, the T/C (dose: 0.02 mg/kg/injection, schedule: Q01DX005 (ip), vehicle: saline) was 155 % of control, the T/C (dose: 0.04 mg/kg/injection, schedule: Q01DX005 (ip), vehicle: saline) was 157 % of control and 158 % of control and 175 % of control and the T/C (dose: 0.08 mg/kg/injection, schedule: Q01DX005 (ip), vehicle: saline) was 191 % of control and 194 % of control and 214 % of control. For the same compound, the T/C (dose: 0.16 mg/kg/injection, schedule: Q01DX005 (ip), vehicle: saline) was 215 % of control and 226 % of control and 287 % of control and the T/C (dose: 0.32 mg/kg/injection, schedule: Q01DX005 (ip), vehicle: saline) was 111 % of control.
`O=P(O)(O)OC1C(OP(=O)(O)O)C(OP(=O)(O)O)C(OP(=O)(O)O)C(OP(=O)(O)O)C1OP(=O)(O)O` (centres undefined) was tested, and the T/C [1] was 94 % of control, the T/C [2] was 94 % of control and the T/C [3] was 102 % of control.
`COc1cccc(/C=N\c2nc(-c3ccccc3Cl)cs2)c1O` was tested, and the T/C [4] was 89 % of control, the T/C [5] was 94 % of control and the T/C [6] was 105 % of control.
In the case of `[CH3][Sn]1([Cl])[O]CCNCC[O]1`, the T/C (dose: 25.0 mg/kg/injection, schedule: Q01DX005 (ip), vehicle: Klucel (hydroxypropylcellulose) (HPC)) is reported as 102 % of control and 97 % of control, the T/C [4] is reported as 98 % of control and 100 % of control and 92 % of control and the T/C [5] is reported as 101 % of control and 109 % of control and 94 % of control. For the same compound, the T/C [6] was 102 % of control and 103 % of control.
For `S=c1ncc2[nH]cnc2[nH]1`, the T/C [4] was 99 % of control, the T/C [5] was 105 % of control and the T/C [6] was 105 % of control.
`CCC(=O)OCc1c(Cl)nc2n1CCS2` was tested, and the T/C (dose: 100.0 mg/kg/injection, schedule: Q01DX001 (ip), vehicle: Klucel (hydroxypropylcellulose) (HPC)) was 100 % of control and the T/C (dose: 200.0 mg/kg/injection, schedule: Q01DX001 (ip), vehicle: Klucel (hydroxypropylcellulose) (HPC)) was 100 % of control.
For `Nc1nc2c(c(=O)[nH]1)NC(CN(C=O)c1ccc(C(=O)NC(CCC(=O)O)C(=O)O)cc1)CC2` (centres undefined), the T/C (dose: 50.0 mg/kg/injection, schedule: Q01DX001 (ip), vehicle: saline) was 99 % of control, the T/C [7] was 100 % of control and the T/C [8] was 91 % of control.
For `ClCCCCOC1CCCCO1` (centres undefined), the T/C [9] was 107 % of control, the T/C [10] was 100 % of control and the T/C [11] was 105 % of control.
In the case of `CCC(C)C1NC(=O)C2C(CCN2C(=O)C(Cc2c[nH]c3ccccc23)NC(=O)C(CC(C)C)N(C)C)Oc2ccc(cc2)/C=C\NC1=O` (centres undefined), the T/C [12] is reported as 94 % of control and the T/C [13] is reported as 97 % of control.
`O=S(=O)(OC(=C(c1ccccc1)c1ccccc1)c1ccccc1)C(F)(F)F` was tested, and the T/C (dose: 50.0 mg/kg/injection, schedule: Q01DX009 (ip), vehicle: olive oil, sesame oil, peanut oil) was 99 % of control, the T/C (dose: 100.0 mg/kg/injection, schedule: Q01DX009 (ip), vehicle: olive oil, sesame oil, peanut oil) was 107 % of control and the T/C (dose: 200.0 mg/kg/injection, schedule: Q01DX009 (ip), vehicle: olive oil, sesame oil, peanut oil) was 112 % of control.
For `Oc1nc(-c2ccccc2)sc1-c1ccc(Cl)cc1`, the T/C (dose: 12.5 mg/kg/injection, schedule: Q01DX009 (ip), vehicle: saline with Tween-80) was 93 % of control, the T/C [14] was 86 % of control and the T/C [15] was 98 % of control.
With `CCOC(=O)/C=C1\NC(=O)N(CCCCCCN2C(=O)N/C(=C\C(=O)OCC)C2=O)C1=O` the T/C [16] was 101 % of control, the T/C [17] was 93 % of control and the T/C [15] was 93 % of control.
`COc1ccc(NS(=O)(=O)c2ccc(C)cc2)c([N+](=O)[O-])c1` was tested, and the T/C (dose: 50.0 mg/kg/injection, schedule: Q01DX009 (ip), vehicle: Klucel (hydroxypropylcellulose) (HPC)) was 116 % of control, the T/C (dose: 100.0 mg/kg/injection, schedule: Q01DX009 (ip), vehicle: Klucel (hydroxypropylcellulose) (HPC)) was 115 % of control and the T/C (dose: 200.0 mg/kg/injection, schedule: Q01DX009 (ip), vehicle: Klucel (hydroxypropylcellulose) (HPC)) was 115 % of control.
In the case of `Cn1ccnc1[Si](C)(C)C`, the T/C [9] is reported as 101 % of control, the T/C [10] is reported as 107 % of control and the T/C [11] is reported as 99 % of control.
In the case of `C=C1CC2(CC(C(=C)C)CCC2C)OC1=O` (centres undefined), the T/C [7] is reported as 101 % of control, the T/C [8] is reported as 99 % of control and the T/C (dose: 400.0 mg/kg/injection, schedule: Q01DX001 (ip), vehicle: saline) is reported as 102 % of control.
For `COC1=C(N=[N+]=[N-])C(=O)c2ncccc2C1=O`, the T/C (dose: 0.63 mg/kg/injection, schedule: Q01DX009 (ip), vehicle: DMSO) was 100 % of control, the T/C (dose: 1.25 mg/kg/injection, schedule: Q01DX009 (ip), vehicle: DMSO) was 100 % of control and the T/C (dose: 1.56 mg/kg/injection, schedule: Q01DX009 (ip), vehicle: saline with Tween-80) was 95 % of control. For the same compound, the T/C (dose: 2.5 mg/kg/injection, schedule: Q01DX009 (ip), vehicle: DMSO) was 107 % of control, the T/C (dose: 3.12 mg/kg/injection, schedule: Q01DX009 (ip), vehicle: saline with Tween-80) was 98 % of control and the T/C (dose: 5.0 mg/kg/injection, schedule: Q01DX009 (ip), vehicle: DMSO) was 100 % of control.
With `CC1(C)N(/N=C/c2ccccc2)C(c2ccccc2)C(c2ccccc2)N1/N=C/c1ccccc1` (centres undefined) the T/C [4] was 86 % of control, the T/C [5] was 89 % of control and the T/C [6] was 87 % of control.
In the case of `CC[CH2][Sn]([Cl])([Cl])[CH2]CC.Oc1ccccc1C=NCCN=Cc1ccccc1O`, the T/C (dose: 0.6 mg/kg/injection, schedule: Q01DX009 (ip), vehicle: gum acacia) is reported as 111 % of control and the T/C (dose: 5.0 mg/kg/injection, schedule: Q01DX009 (ip), vehicle: gum acacia) is reported as 159 % of control.
In the case of `OCC1CC=CCC1` (centres undefined), the T/C [12] is reported as 90 % of control, the T/C [13] is reported as 100 % of control and the T/C [18] is reported as 90 % of control.
With `CCOC(=O)c1cn[nH]c(=O)c1C` the T/C [16] was 100 % of control, the T/C [17] was 96 % of control and the T/C [15] was 104 % of control.
With `c1ccc2[nH]ncc2c1` the T/C [16] was 96 % of control, the T/C [17] was 102 % of control and the T/C [15] was 100 % of control.
For `C=C(C)CCOS(=O)(=O)c1ccc(C)cc1`, the T/C [16] was 102 % of control, the T/C [17] was 110 % of control and the T/C [15] was 90 % of control.
`COc1cc2c(c(OC)c1OC)-c1ccc(OC)c(=O)cc1[C@@H](N(C)Cc1ccccc1O)CC2` was tested, and the T/C (dose: 1.25 mg/kg/injection, schedule: Q01DX009 (ip), vehicle: Klucel (hydroxypropylcellulose) (HPC)) was 97 % of control, the T/C (dose: 2.5 mg/kg/injection, schedule: Q01DX009 (ip), vehicle: Klucel (hydroxypropylcellulose) (HPC)) was 97 % of control and the T/C (dose: 5.0 mg/kg/injection, schedule: Q01DX009 (ip), vehicle: Klucel (hydroxypropylcellulose) (HPC)) was 111 % of control. The T/C (dose: 20.0 mg/kg/injection, schedule: Q01DX009 (ip), vehicle: Klucel (hydroxypropylcellulose) (HPC)) was 166 % of control and 188 % of control.
For `NNc1ncnc2c1ncn2C1OC(CO)C(O)C1O` (centres undefined), the T/C (dose: 19.8 mg/kg/injection, schedule: Q01DX009 (ip), vehicle: saline) was 120 % of control, the T/C (dose: 30.0 mg/kg/injection, schedule: Q01DX009 (ip), vehicle: saline) was 150 % of control and the T/C (dose: 45.0 mg/kg/injection, schedule: Q01DX009 (ip), vehicle: saline) was 160 % of control. For the same compound, the T/C [16] was 120 % of control, the T/C (dose: 66.0 mg/kg/injection, schedule: Q01DX009 (ip), vehicle: saline with Tween-80) was 112 % of control and the T/C [17] was 163 % of control. The T/C (dose: 100.0 mg/kg/injection, schedule: Q04DX003 (ip), vehicle: saline) was 118 % of control and the T/C (dose: 200.0 mg/kg/injection, schedule: Q04DX003 (ip), vehicle: saline) was 86 % of control.
`Clc1ccc(C2NCCNCc3ccccc32)cc1` (centres undefined) was tested, and the T/C [14] was 101 % of control, the T/C [16] was 107 % of control and the T/C [17] was 98 % of control and 115 % of control.
In the case of `CCC[P+](C)(CCC#N)c1ccccc1` (centres undefined), the T/C (dose: 12.5 mg/kg/injection, schedule: Q01DX009 (ip), vehicle: Klucel (hydroxypropylcellulose) (HPC)) is reported as 108 % of control.
With `O=S(=O)(Cc1ccccc1)C1CC1` the T/C [1] was 122 % of control, the T/C (dose: 50.0 mg/kg/injection, schedule: Q01DX009 (ip), vehicle: suspension in saline) was 104 % of control and 106 % of control and the T/C [2] was 119 % of control. The T/C (dose: 100.0 mg/kg/injection, schedule: Q01DX009 (ip), vehicle: suspension in saline) was 108 % of control and 94 % of control, the T/C [3] was 118 % of control and the T/C (dose: 200.0 mg/kg/injection, schedule: Q01DX009 (ip), vehicle: suspension in saline) was 102 % of control and 97 % of control. The T/C (dose: 400.0 mg/kg/injection, schedule: Q01DX009 (ip), vehicle: saline) was 102 % of control and the T/C (dose: 400.0 mg/kg/injection, schedule: Q01DX009 (ip), vehicle: suspension in saline) was 100 % of control and 105 % of control.
`COc1cc(C2OCCO2)cc(OC)c1O` was tested, and the T/C [1] was 97 % of control, the T/C [2] was 105 % of control and the T/C [3] was 101 % of control.
For `CC(CCc1ccccc1)NC1=NCCO1` (centres undefined), the T/C [12] was 95 % of control, the T/C [13] was 100 % of control and the T/C [18] was 90 % of control.
